# Assay results as given in patent US20240228497A1, “Pyrrolo[2, 3-b]Pyrazine-Based Bifunctional Compounds as HPK1 Degraders and the Use Thereof” (BeiGene, Ltd., priority 2021, published 2024).
# What was measured:
# [1] = molecular target: T1, HPK1 kinase (aa1-346, Life Technologies) (Homo sapiens, UniProt Q92918); experiment: HPK Kinase Activity Assay at 1 mM ATP (TR-FRET); assay type: biochemical; settings: HPK1 kinase 40 nM, 0.5 μM STK1 substrate, 60 min preincubation, read-out: Enzymatic activity IC50
# T1 construct: HPK1 kinase (aa1-346, Life Technologies); purchased Life Technologies
# T1 sequence (Q92918 1-346): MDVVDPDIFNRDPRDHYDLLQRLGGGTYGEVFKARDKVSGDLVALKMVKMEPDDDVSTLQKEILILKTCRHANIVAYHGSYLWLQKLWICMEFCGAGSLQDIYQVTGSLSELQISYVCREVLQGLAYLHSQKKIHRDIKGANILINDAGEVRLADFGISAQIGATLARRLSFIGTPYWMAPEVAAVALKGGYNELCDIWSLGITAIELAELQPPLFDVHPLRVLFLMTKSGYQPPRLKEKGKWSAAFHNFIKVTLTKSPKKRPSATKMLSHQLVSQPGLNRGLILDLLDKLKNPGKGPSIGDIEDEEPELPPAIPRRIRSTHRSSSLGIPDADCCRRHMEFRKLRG
# Protocol: HPK Kinase Activity Assay at 1 mM ATP
# Compounds disclosed herein were tested for inhibition of HPK1 kinase (aa1-346, Life Technologies) activity in assays based on the time-resolved fluorescence-resonance energy transfer (TR-FRET) methodology. The assays were carried out in 384-well low volume black plates in a reaction mixture containing HPK1 kinase (40 nM), 1 mM ATP, 0.5 μM STK1 substrate and 0-10 μM compound in buffer containing 50 mM HEPES, 0.01% BSA, 0.1 mM Orthovanadate, 10 mM MgCl2, 1 mM DTT, pH=7.0, 0.005% Tween-20. The kinase was incubated with the compounds disclosed herein or DMSO for 60 minutes at room temperature and the reaction was initiated by the addition of ATP and STK1 substrate. After reaction at room temperature for 120 minutes, an equal volume of stop/detection solution was added according to the manufacture's instruction (CisBio). The stop/detection solution contained STK Antibody—Cryptate and XL665-conjugated streptavidin in Detection Buffer. The TR-FRET signals (ratio of fluorescence emission at 665 nm over emission at 620 nm with excitation at 337 nm wavelength) were recorded on a PHERAstar FS plate reader (BMG Labtech). Phosphorylation of STK1 substrate led to the binding of STK Antibody—Cryptate to the biotinylated STK1 substrate, which places fluorescent donor (Eu^3+ crypate) in close proximity to the accepter (Streptavidin-XL665), thus resulting in a high degree of fluorescence resonance energy transfer. The inhibition of HPK1 in presence of increasing concentrations of compounds was calculated based on the ratio of fluorescence at 665 nm to that at 620 nm. IC50 determination was performed by fitting the curve of percent inhibition versus the log of the inhibitor concentration using Dotmatics.
# [2] = tested on: pSLP76 (S376) level in Jurkat cell line; experiment: Cellular pSLP76(S376) HTRF Assay in Jurkat cells; assay type: cell-based; settings: 2 h compound treatment, stimulated with 0.05 μg/mL anti-human CD3 (OKT3) for 30 min
# Protocol: Cellular pSLP76(S376) HTRF Assay
# Jurkat cell line was used in this study. Cells were maintained in RPMI 1640 supplemented with heat-inactivated 10% fetal bovine serum (Thermo Fisher), 50 units/mL penicillin and streptomycin (Thermo Fisher) and kept at 37° C. in a humidified atmosphere of 5% CO2 in air. Cells were reinstated from frozen stocks that were laid down within 30 passages from the original cells purchased. After cell starvation in the assay buffer (RPMI 1640 supplemented with heat-inactivated 0.1% fetal bovine serum) for 18 hours, cells were seeded into a round bottom 96-well plate at 150,000 cells per well density. Cells were treated with a 9-point dilution series of test compounds. The final compound concentration is from 0 to 2 μM. After 2 h compound treatment, cells were stimulated with 0.05 μg/mL anti-human CD3 (OKT3, Bioxcell) for 30 min at 37° C. Then the cells were lysed, and the pSLP76 (S376) level in the cell lysates was detected by HTRF kit (Cisbio). A total of 16 μL of cell lysate from each well of a 96-well plate was transferred to a 384-well small volume white assay plate. Lysate from each well was incubated with 2 μL of Eu^3+-cryptate (donor) labeled anti-phospho-SLP76 and 2 μL of D2 (acceptor) labeled anti-phospho-SLP76 antibodies (Cisbio) overnight in dark at room temperature. FRET signals (655 nm) were measured using a PHERAstar FSX reader (BMG Labtech). IC50 determination was performed by fitting the curve of percent inhibition versus the log of the inhibitor concentration using Dotmatics.
# HPK1 protein [3] = molecular target: T2, HPK1 protein (Homo sapiens, UniProt Q92918); experiment: HPK1 Protein Degradation Assay in Human PBMC (FACS); assay type: cell-based; settings: 24 h compound treatment
# T2 construct: host or cells: human PBMC (CD4+ and CD8+ T cells gated in the FACS assay)
# T2 sequence (Q92918 whole entry): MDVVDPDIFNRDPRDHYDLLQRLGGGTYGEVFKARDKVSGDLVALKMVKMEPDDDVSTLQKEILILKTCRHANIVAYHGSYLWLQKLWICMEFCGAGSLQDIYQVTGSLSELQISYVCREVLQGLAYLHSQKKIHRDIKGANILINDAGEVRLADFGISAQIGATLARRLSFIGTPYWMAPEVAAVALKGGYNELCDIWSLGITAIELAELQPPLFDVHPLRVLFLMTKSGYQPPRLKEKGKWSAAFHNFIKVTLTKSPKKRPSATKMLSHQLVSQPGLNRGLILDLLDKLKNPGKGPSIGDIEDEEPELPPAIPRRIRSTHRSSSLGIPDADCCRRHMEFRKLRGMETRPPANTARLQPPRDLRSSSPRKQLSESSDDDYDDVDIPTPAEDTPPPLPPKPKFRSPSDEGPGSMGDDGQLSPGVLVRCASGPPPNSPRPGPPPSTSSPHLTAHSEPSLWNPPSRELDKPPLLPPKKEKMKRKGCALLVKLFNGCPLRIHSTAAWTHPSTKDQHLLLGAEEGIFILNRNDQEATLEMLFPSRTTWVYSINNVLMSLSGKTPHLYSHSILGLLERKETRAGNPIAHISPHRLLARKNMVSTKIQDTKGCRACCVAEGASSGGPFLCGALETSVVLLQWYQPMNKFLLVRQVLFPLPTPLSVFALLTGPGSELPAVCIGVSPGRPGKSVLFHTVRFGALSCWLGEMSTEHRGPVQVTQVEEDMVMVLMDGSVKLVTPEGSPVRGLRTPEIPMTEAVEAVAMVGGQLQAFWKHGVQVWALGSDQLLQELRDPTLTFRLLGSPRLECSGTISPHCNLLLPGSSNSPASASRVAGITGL
# Protocol: HPK1 Protein Degradation Assay in Human PBMC (FACS)
# Human PBMCs (AllCells) was used in this study. Cells were thawed one day in advance and maintained in RPMI-1640 supplemented 10% fetal bovine serum (Thermo Fisher), 50 units/mL penicillin and streptomycin (Thermo Fisher) and the mixture was kept at 37° C. in a humidified atmosphere air containing 5% CO2. 3×10^6 PBMCs per well in 95 μL culture medium were seed in the 96-well plate, and the cells were treated with an appropriate dilution series of compounds. After 24 h compound treatment, 100 μL 1xLyse/Fix buffer (BD, diluted with water, warm up in 37° C.) was added to cells and the cells were incubated at 37° C. for 10 minutes. After fixed, the cells were transferred to V-bottom plates (Corning), and washed with FACS buffer (cold 2% FBS DPBS). The cells were permeabilized by adding 100 μL pre-chilled BD Phosflow Perm Buffer III (BD) for 30 min on ice. After washed with FACS buffer twice, the cells were incubated with 50 μL antibody cocktail (HPK1(CST)(1:50), anti-human CD4 BV421 (BD)(1:25), anti-human CD8 APC(BD) (1:25)) at room temperature for 1 h. After washed with FACS buffer twice, the cells were further incubated with 50 μL secondary antibody cocktail (Biolegend) (1:50) at room temperature for 1 h. After washed with FACS buffer twice, the signals were detected by BD FACS Celesta. The data were analyzed by Excel and GraphPad Prism 8.
# HPK1 protein [4] = molecular target: T2, HPK1 protein; experiment: HPK1 Protein Degradation Assay in Human PBMC (Western Blot); assay type: cell-based; settings: 24 h compound incubation
# Protocol: HPK1 Protein Degradation Assay in Human PBMC (Western Blot)
# Human PBMCs (AllCells) was used in this study. Cells were thawed one day in advance and maintained in RPMI-1640 supplemented 10% fetal bovine serum (Thermo Fisher), 50 units/mL penicillin and streptomycin (Thermo Fisher) and the mixture was kept at 37° C. in a humidified atmosphere air containing 5% CO2. 3×10^6 PBMCs per well in 1 mL culture medium were seeded in the 12-well plate, and the cells were treated with an appropriate dilution series of compounds with a final concentration up to […]. After 24 h of compound incubation, the medium was aspirated, the cells were washed with PBS, and then 30 μL of 1X protein lysis buffer (Cell Signaling Technology) containing protease inhibitors (Merck) and phosphatase inhibitors (Sigma) was added. The cells were lysed. After centrifugation, the supernatants were quantified by BCA protein assay kit (Thermo Fisher). 4X loading Buffer (Thermo Fisher) was added to equal amounts of total protein from each sample and heated at 95° C. for 5 minutes. 30-50 μg of cell lysate was loaded onto a 4%-12% NuPAGE Bis-Tris Gel (Thermo Fisher) and electro-transferred to NC membranes (Thermo Fisher). The membranes were blocked for least 1 hour with blocking reagent (LI-COR), and then incubated overnight with anti-HPK1 (Cell Signaling Technology, 4472S) antibodies and as loading control anti-ß-actin (Cell Signaling Technology, 3700S) or anti-GAPDH (Cell Signaling Technology, 97166S) at 4° C. with gentle shaking. The membranes were washed three times with TBST, and incubated at least 1 hour at room temperature with anti-mouse or anti-rabbit secondary fluorescent antibody (Thermo Fisher, A32729; LI—COR, 926-32213). Then the membranes were washed three times in TBST, and one time in water. Immunoreactive bands were visualized by Odyssey CLx and analyzed by GraphPad Prism 8.
# [5] = CD4+ T Cells, read-out: Protein degradation DC50, CD4+ T Cells
# [6] = CD4+ T Cells, read-out: Protein degradation Dmax, CD4+ T Cells
# [7] = CD8+ T Cells, read-out: Protein degradation DC50, CD8+ T Cells
# [8] = CD8+ T Cells, read-out: Protein degradation Dmax, CD8+ T Cells
IC50 [1] [µM],IC50 [2] [µM],"Protein degradation DC90, CD4+ T Cells (HPK1 protein [3]; CD4+ T Cells) [µM]",DC50 (HPK1 protein [3]; [5]) [µM],Dmax (HPK1 protein [3]; [6]) [%],"Protein degradation DC90, CD8+ T Cells (HPK1 protein [3]; CD8+ T Cells) [µM]",DC50 (HPK1 protein [3]; [7]) [µM],Dmax (HPK1 protein [3]; [8]) [%],DC50 (HPK1 protein [4]) [µM],Dmax (HPK1 protein [4]) [%],Protein degradation DC90 (HPK1 protein [4]) [µM],Compound
0.016,0.181,0.077,0.019,93,0.495,0.071,95,,,,"Cc1cc(-c2cnc3[nH]cc(-c4ccc(C(=O)N(C)C[C@H](C)O)cc4)c3c2)cc2c1CN(CCC(=O)N1CCN(c3ccc(N4CCC(=O)NC4=O)cc3)CC1)CC2 [Example 9, (S)-4-(5-(2-(3-(4-(4-(2,4-dioxotetrahydropyrimidin-1(2H)-yl)phenyl)piperazin-1-yl)-3-oxopropyl)-8-methyl-1,2,3,4-tetrahydroisoquinolin-6-yl)-1H-pyrrolo[2,3-b]pyridin-3-yl)-N-(2-hydroxypropyl)-N-methylbenzamide]"
0.024,0.116,0.06,0.009,95,0.128,0.017,96,,,,"Cc1cc(-c2cnc3[nH]cc(-c4ccc(C(=O)N(C)C)cc4)c3n2)cc2c1CN(CCC(=O)N1CCN(c3ccc(N4CCC(=O)NC4=O)cc3)CC1)CC2 [Example 5, 4-(2-(2-(3-(4-(4-(2,4-dioxotetrahydropyrimidin-1(2H)-yl)phenyl)piperazin-1-yl)-3-oxopropyl)-8-methyl-1,2,3,4-tetrahydroisoquinolin-6-yl)-5H-pyrrolo[2,3-b]pyrazin-7-yl)-N,N-dimethylbenzamide]"
0.297,0.496,,,,,,,,,,"Cc1cc(-c2c[nH]c3ncc(-c4cc(C)c5c(c4)CCN(CCNC(=O)CC4CCN(c6ccc(C7CCC(=O)NC7=O)cc6)CC4)C5)nc23)ccc1C(=O)N(C)C (stereo not drawn) [Example 8, 4-(2-(2-(2-(2-(1-(4-(2,6-dioxopiperidin-3-yl)phenyl)piperidin-4-yl)acetamido)ethyl)-8-methyl-1,2,3,4-tetrahydroisoquinolin-6-yl)-5H-pyrrolo[2,3-b]pyrazin-7-yl)-N,N,2-trimethylbenzamide]"
0.061,0.193,,,,,,,0.023,97,0.215,"Cc1cc(-c2c[nH]c3ncc(-c4cc(C)c5c(c4)CCN(CCC(=O)N4CCN(c6ccc(N7CCC(=O)NC7=O)cc6)CC4)C5)nc23)ccc1C(=O)N(C)C [Example 3, 4-(2-(2-(3-(4-(4-(2,4-dioxotetrahydropyrimidin-1(2H)-yl)phenyl)piperazin-1-yl)-3-oxopropyl)-8-methyl-1,2,3,4-tetrahydroisoquinolin-6-yl)-5H-pyrrolo[2,3-b]pyrazin-7-yl)-N,N,2-trimethylbenzamide]"
0.02,0.307,0.118,0.025,95,0.388,0.045,95,,,,"Cc1cc(-c2cnc3[nH]cc(-c4ccc(C(=O)N(C)C[C@H](C)O)cc4)c3n2)cc2c1CN(CCC(=O)N1CCN(c3ccc(N4CCC(=O)NC4=O)cc3)CC1)CC2 [Example 7, (S)-4-(2-(2-(3-(4-(4-(2,4-dioxotetrahydropyrimidin-1(2H)-yl)phenyl)piperazin-1-yl)-3-oxopropyl)-8-methyl-1,2,3,4-tetrahydroisoquinolin-6-yl)-5H-pyrrolo[2,3-b]pyrazin-7-yl)—N-(2-hydroxypropyl)—N-methylbenzamide]"
0.031,0.088,0.052,0.011,96,0.104,0.016,96,,,,"Cc1cc(-c2cnc3[nH]cc(-c4ccc(C(=O)N(C)C)cc4)c3c2)cc2c1CN(CCC(=O)N1CCN(c3ccc(N4CCC(=O)NC4=O)cc3)CC1)CC2 [Example 6, 4-(5-(2-(3-(4-(4-(2,4-dioxotetrahydropyrimidin-1(2H)-yl)phenyl)piperazin-1-yl)-3-oxopropyl)-8-methyl-1,2,3,4-tetrahydroisoquinolin-6-yl)-1H-pyrrolo[2,3-b]pyridin-3-yl)-N,N-dimethylbenzamide]"
